Laboratory results published in patent US8557812B2, “Small molecule inhibitors of anti-apoptotic BCL-2 family members and the uses thereof” (The Regents of the University of Michigan, priority 2004, dated 2013).

What follows are molecules tested against human Bcl-xL (Homo sapiens, UniProt Q07817) (assay: Fluorescence polarization in vitro Bcl-xL binding assay). Details: displacement of Flu-Bak peptide.
Excerpt: For determination of the binding affinity to Bcl-xL protein a human Bcl-xL recombinant His-tagged protein without the C-terminus hydrophobic tail and the Bak-16mer BH3 peptide labeled with 6-carboxyfluorescein succinimidyl ester (FAM) were used.

Sequence of human Bcl-xL (Q07817 1-209 limits assumed): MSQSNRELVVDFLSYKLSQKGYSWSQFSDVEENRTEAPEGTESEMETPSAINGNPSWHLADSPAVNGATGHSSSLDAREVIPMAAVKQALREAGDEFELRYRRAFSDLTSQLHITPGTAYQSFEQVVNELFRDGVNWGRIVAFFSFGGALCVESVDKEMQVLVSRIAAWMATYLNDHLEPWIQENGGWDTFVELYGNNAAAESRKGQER

**Q.** Which IC50 does the source give for O=C(c1ccc(Oc2ccc(S(=O)(=O)N3CCCCC3)c(Cl)c2)cc1)c1cc(C(=O)c2nc3ccccc3s2)c(O)c(O)c1O [TM-180] here?
**A.** > 1 µM

**Q.** For CC(C)c1cc(Cc2ccc(Oc3ccccc3)cc2)c(O)c(O)c1O [TM-159], which IC50 is on record?
**A.** > 1 µM

**Q.** How did the IC50 turn out when O=C(c1ccc(Oc2ccccc2)cc1)c1cc(C(=O)c2nc3ccccc3s2)c(O)c(O)c1O [TM-179] was run?
**A.** > 1 µM

Each molecule was assayed against Bcl-2 (Homo sapiens, UniProt P10415) (assay: Fluorescence polarization in vitro Bcl-2 binding assay). Details: not given.
Sequence of Bcl-2 (P10415 92-205 limits assumed): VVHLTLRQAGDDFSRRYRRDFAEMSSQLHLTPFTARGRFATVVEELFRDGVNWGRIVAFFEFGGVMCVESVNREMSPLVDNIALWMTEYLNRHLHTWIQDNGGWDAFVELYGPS
Experimental: Bcl-2 used in this assay is a recombinant His-fused soluble protein. […] Inc., Research Triangle Park, N.C.). […] The unlabeled Bid peptide is used as the positive control. The Ki values were calculated using our developed equation for FP assay (Nikolovska-Coleska et al., Anal. Biochem., 2004, in press). The program for calculating a Ki value is available free of charge via the Internet at http://sw16.im.med.umich.edu/software/calc_ki/.

**Q.** Which IC50 does the source give for O=C(Nc1ccc(Cl)c(Cl)c1)c1cc(CCc2ccccc2)c(O)c(O)c1O [TW-27] here?
**A.** > 1 µM

**Q.** With CC(C)CCCc1ccccc1Cc1cc(C(=O)Nc2ccc(S(=O)(=O)c3ccccc3C(C)(C)C)cc2)c(O)c(O)c1O [TW-42, N-[4-(2-tert-Butyl-benzenesulfonyl)-phenyl]-2,3,4-trihydroxy-5-(2-iso-hexyl-benzyl)-benzamide] as the molecule, how does the IC50 read?
**A.** > 1 µM

**Q.** With CC(C)(C)c1ccc(CCc2cc(O)c(O)c(C(=O)Nc3ccc(S(=O)(=O)N4CCN(c5ccccc5)CC4)cc3)c2)cc1 [TW-167] as the molecule, how does the IC50 read?
**A.** > 1 µM

**Q.** How did the IC50 turn out when CNC(=O)c1cc(Cc2ccccc2C(C)C)c(O)c(O)c1O [TW-55, N-Methyl-2,3,4-trihydroxy-5-(2-isopropyl-benzyl)-benzamide] was run?
**A.** > 1 µM

**Q.** How did the IC50 turn out when CC(C)c1ccccc1Cc1cc(C(=O)Nc2cc(S(=O)(=O)c3ccc(Cl)cc3)ccc2Cl)c(O)c(O)c1O [TW-35, N-[2-Chloro-5-(4-chloro-benzenesulfonyl)-phenyl]-2,3,4-trihydroxy-5-(2-isopropyl-benzyl)-benzamide] was run?
**A.** > 1 µM

**Q.** Oc1c(Cc2ccccc2)cc(-c2ccc(CCCc3ccccc3)cc2)c(O)c1O [TW-11, 5-Benzyl-4′-(3-phenyl-propyl)-biphenyl-2,3,4-triol] was tested. Which IC50 did it give?
**A.** > 1 µM

**Q.** With CCCCCCCCCCCc1ccc(-c2cc(CCCc3ccccc3)c(O)c(O)c2O)cc1 [TW-6, 5-(3-Phenyl-propyl)-4′-undecyl-biphenyl-2,3,4-triol] as the molecule, how does the IC50 read?
**A.** > 1 µM

**Q.** For CC(C)(C)c1ccc(Cc2cc(C(=O)Nc3ccc(S(=O)(=O)c4ccccc4C(C)(C)C)cc3)c(O)c(O)c2O)cc1 [TW-41, N-[4-(2-tert-Butyl-benzenesulfonyl)-phenyl]-2,3,4-trihydroxy-5-(4-tert-butyl-benzyl)-benzamide], which IC50 is on record?
**A.** > 1 µM

**Q.** With CC(C)c1cc(-c2ccc(C(C)(C)C)cc2)c(O)c(O)c1O [TW-4, 4′-tert-Butyl-5-isopropyl-biphenyl-2,3,4-triol] as the molecule, how does the IC50 read?
**A.** > 1 µM

**Q.** O=C(Nc1ccc(S(=O)(=O)N2CCC(Nc3ccccc3-c3ccccc3)CC2)cc1)c1cc(S(=O)(=O)N2CCc3ccccc3C2)cc(O)c1O [TW-173] was tested. Which IC50 did it give?
**A.** > 1 µM

**Q.** How did the IC50 turn out when CC(C)(C)c1ccc(-c2cc(Cc3ccccc3)c(O)c(O)c2O)cc1 [TW-3, 5-Benzyl-4′-tert-butyl-biphenyl-2,3,4-triol] was run?
**A.** > 1 µM

**Q.** For O=C(Nc1ccc(S(=O)(=O)N2CCN(c3ccccc3)CC2)cc1)c1cc(S(=O)(=O)N2CCc3ccccc3C2)cc(O)c1O [TW-163], which IC50 is on record?
**A.** > 1 µM

**Q.** With CC(C)CCCc1cc(C(=O)Nc2cc(S(=O)(=O)c3ccc(Cl)cc3)ccc2Cl)c(O)c(O)c1O [TW-47, N-[2-Chloro-5-(4-chloro-benzenesulfonyl)-phenyl]-2,3,4-trihydroxy-5-iso-hexyl-benzamide] as the molecule, how does the IC50 read?
**A.** ≤ 1 µM

**Q.** For CC(C)(C)c1ccccc1S(=O)(=O)c1ccc(NC(=O)c2cc(S(=O)(=O)NCCCc3ccccc3)cc(O)c2O)cc1 [TW-159], which IC50 is on record?
**A.** ≤ 1 µM

**Q.** Which IC50 does the source give for O=C(Nc1ccc(Oc2ccccc2)cc1)c1cc(CCc2ccccc2)c(O)c(O)c1O [TW-20, N-(4-phenyloxy-phenyl)-2,3,4-trihydroxy-5-phenethyl-benzamide] here?
**A.** > 1 µM

**Q.** For CCCCCCCCCCCc1ccc(-c2cc(Cc3ccc(C(C)(C)C)cc3)c(O)c(O)c2O)cc1 [TW-8, 5-(4-Tertbutyl-benzyl)-4′-undecyl-biphenyl-2,3,4-triol], which IC50 is on record?
**A.** > 1 µM

**Q.** For CC(C)(C)c1ccc(CCc2cc(C(=O)Nc3ccc(S(=O)(=O)c4ccccc4C(C)(C)C)cc3)c(O)c(O)c2O)cc1 [TW-38, N-[(2-tert-Butyl-benzenesulfonyl)-phenyl]-2,3,4-trihydroxy-5-(4-tert-butyl-phenethyl)-benzamide], which IC50 is on record?
**A.** ≤ 1 µM

**Q.** For CC(C)(C)c1ccc(CCc2cc(O)c(O)c(C(=O)Nc3ccc(S(=O)(=O)N4CCN(c5ncccn5)CC4)cc3)c2)cc1 [TW-169], which IC50 is on record?
**A.** ≤ 1 µM

**Q.** CC(C)(C)c1ccc(CNC(=O)c2cc(CCc3ccccc3)c(O)c(O)c2O)cc1 [TW-25, N-(4-tert-Butyl-benzyl)-2,3,4-trihydroxy-5-phenethyl-benzamide] was tested. Which IC50 did it give?
**A.** > 1 µM

**Q.** For Cc1ccccc1NC(=O)c1cc(CCc2ccccc2)c(O)c(O)c1O [TW-28], which IC50 is on record?
**A.** > 1 µM

**Q.** With CC(C)c1ccccc1Cc1cc(C(=O)Nc2ccccc2)c(O)c(O)c1O [TW-52, N-Phenyl-2,3,4-trihydroxy-5-(2-iso-propyl-benzyl)-benzamide] as the molecule, how does the IC50 read?
**A.** > 1 µM

**Q.** With CC(C)(C)c1ccc(Cc2cc(C(=O)Nc3cc(S(=O)(=O)c4ccc(Cl)cc4)ccc3Cl)c(O)c(O)c2O)cc1 [TW-39, N-[2-Chloro-5-(4-chloro-benzenesulfonyl)-phenyl]-2,3,4-trihydroxy-5-(4-tert-butyl-benzyl)-benzamide] as the molecule, how does the IC50 read?
**A.** > 1 µM

**Q.** O=C(Nc1ccc(S(=O)(=O)N2CCOCC2)cc1)c1cc(S(=O)(=O)N2CCc3ccccc3C2)cc(O)c1O [TW-164] was tested. Which IC50 did it give?
**A.** ≤ 1 µM

**Q.** How did the IC50 turn out when Oc1c(Cc2ccccc2)cc(-c2ccc(CCCCCc3ccccc3)cc2)c(O)c1O [TW-1, 5-Benzyl-4′-(5-phenyl-pentyl)-biphenyl-2,3,4-triol] was run?
**A.** > 1 µM

**Q.** Which IC50 does the source give for CCCCCCCCCCCc1ccc(-c2cc(Cc3ccc(C(C)C)cc3)c(O)c(O)c2O)cc1 [TW-9, 5-(4-Isopropyl-benzyl)-4′-undecyl-biphenyl-2,3,4-triol] here?
**A.** > 1 µM

**Q.** With CC(C)c1ccccc1Cc1cc(C(=O)Nc2ccccc2Cl)c(O)c(O)c1O [TW-53, N-(2-Chloro-phenyl)-2,3,4-trihydroxy-5-(2-iso-propyl-benzyl)-benzamide] as the molecule, how does the IC50 read?
**A.** > 1 µM

**Q.** For CCCCCCCCCCc1ccc(-c2cc(Cc3ccccc3)c(O)c(O)c2O)cc1 [TW-2, 5-Benzyl-4′-decyl-biphenyl-2,3,4-triol], which IC50 is on record?
**A.** > 1 µM

**Q.** For COc1ccc(S(=O)(=O)Nc2ccccc2C(C)C)cc1NC(=O)c1cc(S(=O)(=O)N2CCc3ccccc3C2)cc(O)c1O [TW-165], which IC50 is on record?
**A.** ≤ 1 µM

**Q.** For CC(C)(C)c1ccccc1S(=O)(=O)c1ccc(NC(=O)c2cc(S(=O)(=O)NCCc3ccccc3)cc(O)c2O)cc1 [TW-161], which IC50 is on record?
**A.** > 1 µM

**Q.** Which IC50 does the source give for O=C(Nc1cccc(S(=O)(=O)c2ccccc2)c1)c1cc(CCc2ccccc2)c(O)c(O)c1O [TW-21, N-(3-Benzenesulfonyl-phenyl)-2,3,4-trihydroxy-5-phenethyl-benzamide] here?
**A.** > 1 µM

**Q.** How did the IC50 turn out when CC(C)c1cccc(NC(=O)c2cc(CCc3ccccc3)c(O)c(O)c2O)c1 [TW-24, N-(3-isopropyl-phenyl)-2,3,4-trihydroxy-5-phenethyl-benzamide] was run?
**A.** > 1 µM

**Q.** Which IC50 does the source give for CCc1cc(C(=O)Nc2cc(S(=O)(=O)c3ccc(Cl)cc3)ccc2Cl)c(O)c(O)c1O [TW-45, N-[2-Chloro-5-(4-chloro-benzenesulfonyl)-phenyl]-2,3,4-trihydroxy-5-ethyl-benzamide] here?
**A.** ≤ 1 µM

**Q.** With Oc1c(Cc2ccccc2)cc(-c2ccc(Cc3ccccc3)cc2)c(O)c1O [TW-12, 5,4′-Dibenzyl-biphenyl-2,3,4-triol] as the molecule, how does the IC50 read?
**A.** > 1 µM

**Q.** Which IC50 does the source give for CCCCCCCCCCCc1ccc(-c2cc(Cc3ccccc3C(C)C)c(O)c(O)c2O)cc1 [TW-14, 5-(2-Isopropyl-benzyl)-4′-undecyl-biphenyl-2,3,4-triol] here?
**A.** > 1 µM

**Q.** O=C(Nc1cc(S(=O)(=O)c2ccc(Cl)cc2)ccc1Cl)c1ccc(O)c(O)c1O [TW-46, N-[2-Chloro-5-(4-chloro-benzenesulfonyl)-phenyl]-2,3,4-trihydroxy-benzamide] was tested. Which IC50 did it give?
**A.** ≤ 1 µM

**Q.** Which IC50 does the source give for O=C(Nc1ccc(S(=O)(=O)c2ccccc2)cc1)c1cc(Cc2ccccc2)c(O)c(O)c1O [TW-56, N-(Benzenesulfonyl-phenyl)-2,3,4-trihydroxy-5-benzyl-benzamide] here?
**A.** > 1 µM

**Q.** For CN(CCCc1ccccc1)S(=O)(=O)c1cc(C(=O)N2CCc3ccc(S(=O)(=O)NCCc4ccccc4)cc3C2)c(O)c(O)c1O [TM-1206], which IC50 is on record?
**A.** ≤ 1 µM

**Q.** How did the IC50 turn out when O=C(Nc1cc(S(=O)(=O)c2ccc(Cl)cc2)ccc1Cl)c1cc(Cc2ccccc2)c(O)c(O)c1O [TW-17] was run?
**A.** > 1 µM

**Q.** Which IC50 does the source give for O=C(Nc1cc(S(=O)(=O)c2ccc(Cl)cc2)ccc1Cl)c1cc(CCc2ccccc2)cc(O)c1O [TW-34, N-[2-Chloro-5-(4-chloro-benzenesulfonyl)-phenyl]-2,3-dihydroxyl-phenethyl-benzamide] here?
**A.** > 1 µM

**Q.** With CCCCCCCCCCCc1ccc(-c2cc(CCc3ccc(C(C)(C)C)cc3)c(O)c(O)c2O)cc1 [TW-7, 5-[2-(4-tert-Butyl-phenyl)-ethyl]-4′-unedcyl-biphenyl-2,3,4-triol] as the molecule, how does the IC50 read?
**A.** > 1 µM

**Q.** CC(C)(C)c1ccccc1S(=O)(=O)c1ccc(NC(=O)c2cc(S(=O)(=O)NCCCCc3ccccc3)cc(O)c2O)cc1 [TW-160] was tested. Which IC50 did it give?
**A.** > 1 µM

**Q.** For CCCCCCCCCCc1ccc(-c2cc(C(C)C)c(O)c(O)c2O)cc1 [TW-5, 4′-Decyl-5-isopropyl-biphenyl-2,3,4-triol], which IC50 is on record?
**A.** > 1 µM

**Q.** How did the IC50 turn out when O=C1C(c2ccc(C(=O)N3CCC(Cc4ccccc4)CC3)cc2)=Cc2c1c(O)c(O)c(O)c2-c1ccc(-c2ccccc2)cc1 [TW-172] was run?
**A.** ≤ 1 µM

**Q.** O=C(Nc1ccccc1)c1cc(S(=O)(=O)Nc2ccccc2)cc(O)c1O [TW-162] was tested. Which IC50 did it give?
**A.** > 1 µM

**Q.** How did the IC50 turn out when CC(C)(C)c1ccc(CCc2cc(O)c(O)c(C(=O)Nc3ccc(S(=O)(=O)N4CCC(Cc5ccccc5)CC4)cc3)c2)cc1 [TW-170] was run?
**A.** > 1 µM

**Q.** CC(C)(C)c1ccc(CCc2cc(C(=O)Nc3cccc(S(=O)(=O)c4ccccc4)c3)c(O)c(O)c2O)cc1 [TW-22, N-(3-Benzenesulfonyl-phenyl)-5-[2-(4-tert-butyl-phenyl)-ethyl]-2,3,4-trihydroxy-benzamide] was tested. Which IC50 did it give?
**A.** > 1 µM

**Q.** For CC(C)(C)c1ccccc1NC1CCN(S(=O)(=O)c2ccc(NC(=O)c3cc(S(=O)(=O)N4CCc5ccccc5C4)cc(O)c3O)cc2)CC1 [TW-174], which IC50 is on record?
**A.** > 1 µM

**Q.** How did the IC50 turn out when O=C(NCCc1ccccc1)c1ccc(C2=Cc3c(c(O)c(O)c(O)c3-c3ccc(-c4ccccc4)cc3)C2=O)cc1 [TW-166] was run?
**A.** ≤ 1 µM
